From publication PMC9133015 (Nature Communications, 2022)
Several values for one entry are separate records, joined by “and”; a condition that tells them apart may be missing. Equal values may be shown once.

How the values were obtained:
Type in all cases: cell-based, human
[1] = system: 22Rv1 cells; test: Apoptosis assay (Annexin V-APC/PI flow cytometry); details: for Apoptosis (%): replicates
[2] = system: DU145 cells; test: Apoptosis assay (Annexin V-APC/PI flow cytometry); details: for Apoptosis (%): replicates
[3] = system: PC-3 cells; test: Apoptosis assay (Annexin V-APC/PI flow cytometry); details: for Apoptosis (%): PC-3, replicates
[4] = system: 22Rv1 cells; test: Anti-proliferation activity assay (CCK8, 72 h); details: for Relative proliferation rate (%) mean / Relative proliferation rate (%) / optical density: 22Rv1; for Relative proliferation rate (%) / optical density: replicates
[5] = system: 22Rv1 cells; test: Cell growth assay (5-day course)
[6] = system: DU145 cells; test: Cell growth assay (5-day course)
[7] = system: PC-3 cells; test: Cell growth assay (5-day course); details: PC-3; for Relative proliferation rate / optical density: replicates

Structure (SMILES): CCN1CCN(C(=O)c2ccc(Nc3ncc(F)c(-c4ccc5nc(N(C)C)sc5c4)n3)nc2)CC1 [YK-2-69]
- Apoptosis (%) ([1]; 22Rv1, 0.5 μM): 10.56% and 11.41% and 12.03%
- Apoptosis (%) ([1]; 22Rv1, 1 μM): 18.52% and 20.96% and 19.24%
- Apoptosis (%) ([1]; 22Rv1, 2 μM): 26.56% and 24.71% and 24.31%
- apoptosis (in words) ([1]; 22Rv1 cells, concentration-dependent): significant increase of the apoptotic cell population
- Apoptosis (%) ([2]; DU145, 2 μM): 9.32% and 10.11% and 8.62%
- Apoptosis (%) ([2]; DU145, 4 μM): 11.15% and 12.55% and 13.62%
- Apoptosis (%) ([2]; DU145, 8 μM): 26.62% and 31.08% and 30.25%
- apoptosis (in words) ([2]; DU145 cells, concentration-dependent): significant increase of the apoptotic cell population
- Apoptosis (%) ([3]; 0.5 µM): 5.98% and 6.29% and 6.68%
- Apoptosis (%) ([3]; 1 µM): 7.85% and 8.04% and 8.54%
- Apoptosis (%) ([3]; 2 µM): 12.28% and 13.62% and 14.23%
- apoptosis (in words) ([3]; PC-3 cells, concentration-dependent): significant increase of the apoptotic cell population
- Relative proliferation rate (%) mean ([4]; 0.0049 uM): 8.6252%
- Relative proliferation rate (%) ([4]; 0.0049 uM): 6.856% and 10.4024% and 8.617%
- optical density ([4]; 0.0049 uM): 0.951 and 0.913 and 0.912
- Relative proliferation rate (%) mean ([4]; 0.078 uM): 28.6346%
- Relative proliferation rate (%) ([4]; 0.078 uM): 32.9089% and 24.3376% and 28.6573%
- optical density ([4]; 0.078 uM): 0.685 and 0.771 and 0.712
- Relative proliferation rate (%) mean ([4]; 0.3125 uM): 33.639%
- Relative proliferation rate (%) ([4]; 0.3125 uM): 36.3369% and 30.9127% and 33.6673%
- optical density ([4]; 0.3125 uM): 0.65 and 0.704 and 0.662
- Relative proliferation rate (%) mean ([4]; 1.25 uM): 55.2648%
- Relative proliferation rate (%) ([4]; 1.25 uM): 58.57% and 51.9136% and 55.3106%
- optical density ([4]; 1.25 uM): 0.423 and 0.49 and 0.446
- Relative proliferation rate (%) mean ([4]; 5 uM): 68.233%
- Relative proliferation rate (%) ([4]; 5 uM): 72.38% and 64.0824% and 68.2365%
- optical density ([4]; 5 uM): 0.282 and 0.366 and 0.317
- Relative proliferation rate (%) mean ([4]; 20 uM): 73.6982%
- Relative proliferation rate (%) ([4]; 20 uM): 76.5916% and 70.7556% and 73.7475%
- optical density ([4]; 20 uM): 0.239 and 0.298 and 0.262
- Relative proliferation rate (%) mean ([4]; 80 uM): 89.3325%
- Relative proliferation rate (%) ([4]; 80 uM): 93.7316% and 84.8871% and 89.3788%
- optical density ([4]; 80 uM): 0.064 and 0.154 and 0.106
- inhibitory activity against proliferation (in words) ([4]; 22Rv1 cells): potent inhibitory activity
- Relative proliferation rate mean ([5]; 22Rv1, 0.5 µM, day 1): 1.179
- Relative proliferation rate mean ([5]; 22Rv1, 0.5 µM, day 2): 1.871
- Relative proliferation rate mean ([5]; 22Rv1, 0.5 µM, day 3): 2.62
- Relative proliferation rate mean ([5]; 22Rv1, 0.5 µM, day 4): 3.018
- Relative proliferation rate mean ([5]; 22Rv1, 1 µM, day 1): 1.007
- Relative proliferation rate mean ([5]; 22Rv1, 1 µM, day 2): 1.59
- Relative proliferation rate mean ([5]; 22Rv1, 1 µM, day 3): 1.919
- Relative proliferation rate mean ([5]; 22Rv1, 1 µM, day 4): 2.135
- Relative proliferation rate mean ([5]; 22Rv1, 2 µM, day 1): 0.9977
- Relative proliferation rate mean ([5]; 22Rv1, 2 µM, day 2): 1.414
- Relative proliferation rate mean ([5]; 22Rv1, 2 µM, day 3): 1.775
- Relative proliferation rate mean ([5]; 22Rv1, 2 µM, day 4): 1.902
- cell proliferation, 5-day course/colony (in words) ([5]; 22Rv1 cells, dose-dependent): significantly inhibited the cell proliferation
- Relative proliferation rate mean ([6]; DU145, 4 μM, day 1): 1.572
- Relative proliferation rate mean ([6]; DU145, 4 μM, day 2): 2.148
- Relative proliferation rate mean ([6]; DU145, 4 μM, day 3): 4.361
- Relative proliferation rate mean ([6]; DU145, 4 μM, day 4): 5.61
- Relative proliferation rate mean ([6]; DU145, 8 μM, day 1): 1.538
- Relative proliferation rate mean ([6]; DU145, 8 μM, day 2): 2.008
- Relative proliferation rate mean ([6]; DU145, 8 μM, day 3): 3.775
- Relative proliferation rate mean ([6]; DU145, 8 μM, day 4): 4.448
- Relative proliferation rate mean ([6]; DU145, 12 μM, day 1): 1.322
- Relative proliferation rate mean ([6]; DU145, 12 μM, day 2): 1.207
- Relative proliferation rate mean ([6]; DU145, 12 μM, day 3): 1.763
- Relative proliferation rate mean ([6]; DU145, 12 μM, day 4): 2.506
- cell proliferation, 5-day course/colony (in words) ([6]; DU145 cells, dose-dependent): significantly inhibited the cell proliferation
- Relative proliferation rate mean ([7]; 1 µM, day 0): 1
- Relative proliferation rate ([7]; 1 µM, day 0): 1
- optical density ([7]; 1 µM, day 0): 0.270
- Relative proliferation rate mean ([7]; 1 µM, day 1): 1.314
- Relative proliferation rate ([7]; 1 µM, day 1): 1.339 and 1.335 and 1.268
- optical density ([7]; 1 µM, day 1): 0.361 and 0.36 and 0.342
- Relative proliferation rate mean ([7]; 1 µM, day 2): 1.774
- Relative proliferation rate ([7]; 1 µM, day 2): 1.713 and 1.81 and 1.799
- optical density ([7]; 1 µM, day 2): 0.462 and 0.488 and 0.485
- Relative proliferation rate mean ([7]; 1 µM, day 3): 3.173
- Relative proliferation rate ([7]; 1 µM, day 3): 3.23 and 3.148 and 3.141
- optical density ([7]; 1 µM, day 3): 0.871 and 0.849 and 0.847
- Relative proliferation rate mean ([7]; 1 µM, day 4): 6.7021
- Relative proliferation rate ([7]; 1 µM, day 4): 6.623 and 6.6712 and 6.812
- optical density ([7]; 1 µM, day 4): 1.786 and 1.799 and 1.837
- Relative proliferation rate mean ([7]; 2 µM, day 0): 1
- Relative proliferation rate ([7]; 2 µM, day 0): 1
- optical density ([7]; 2 µM, day 0): 0.273
- Relative proliferation rate mean ([7]; 2 µM, day 1): 1.2692
- Relative proliferation rate ([7]; 2 µM, day 1): 1.28 and 1.295 and 1.233
- optical density ([7]; 2 µM, day 1): 0.35 and 0.354 and 0.337
- Relative proliferation rate mean ([7]; 2 µM, day 2): 1.697
- Relative proliferation rate ([7]; 2 µM, day 2): 1.752 and 1.668 and 1.672
- optical density ([7]; 2 µM, day 2): 0.479 and 0.456 and 0.457
- Relative proliferation rate mean ([7]; 2 µM, day 3): 2.625
- Relative proliferation rate ([7]; 2 µM, day 3): 2.612 and 2.575 and 2.688
- optical density ([7]; 2 µM, day 3): 0.714 and 0.704 and 0.735
- Relative proliferation rate mean ([7]; 2 µM, day 4): 5.619
- Relative proliferation rate ([7]; 2 µM, day 4): 5.662 and 5.571 and 5.625
